What was measured:
[1] = biological target: T1, EGFR L858R T790M in NCI-H1975 cell line (Homo sapiens, UniProt P00533, L858R/T790M); experiment: NCI-H1975 pEGFR AlphaLISA assay; type: cell-based; settings: NCI-H1975 cells (EGFR L858R T790M), p-EGFR (Tyr1068), 4-5 hours incubation; read-out: Ext pEGFR H1975 GMean IC50 (nM) Protocol: @Pharmaron AlphaLISA (Num)
T1 construct: host or cells: NCI-H1975
How it was run: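 Phospho-EGFR measured by AlphaLISA after overnight donor-bead incubation; IC50 from percent pEGFR inhibition versus log concentration.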

[2] = biological target: T2, EGFR (L858R T790M C797S) (Homo sapiens, UniProt P00533, C797S/L858R/T790M); experiment: Biochemical EGFR inhibition assay (Caliper mobility shift), EGFR LRTMCS mutant; settings: LRTMCS (PH) IC50 (nM) @ 1 mM ATP (Num)
T2 construct: purchased SignalChem E10-122VG
T2 sequence (P00533 25-1210 T790M/C797S/L858R): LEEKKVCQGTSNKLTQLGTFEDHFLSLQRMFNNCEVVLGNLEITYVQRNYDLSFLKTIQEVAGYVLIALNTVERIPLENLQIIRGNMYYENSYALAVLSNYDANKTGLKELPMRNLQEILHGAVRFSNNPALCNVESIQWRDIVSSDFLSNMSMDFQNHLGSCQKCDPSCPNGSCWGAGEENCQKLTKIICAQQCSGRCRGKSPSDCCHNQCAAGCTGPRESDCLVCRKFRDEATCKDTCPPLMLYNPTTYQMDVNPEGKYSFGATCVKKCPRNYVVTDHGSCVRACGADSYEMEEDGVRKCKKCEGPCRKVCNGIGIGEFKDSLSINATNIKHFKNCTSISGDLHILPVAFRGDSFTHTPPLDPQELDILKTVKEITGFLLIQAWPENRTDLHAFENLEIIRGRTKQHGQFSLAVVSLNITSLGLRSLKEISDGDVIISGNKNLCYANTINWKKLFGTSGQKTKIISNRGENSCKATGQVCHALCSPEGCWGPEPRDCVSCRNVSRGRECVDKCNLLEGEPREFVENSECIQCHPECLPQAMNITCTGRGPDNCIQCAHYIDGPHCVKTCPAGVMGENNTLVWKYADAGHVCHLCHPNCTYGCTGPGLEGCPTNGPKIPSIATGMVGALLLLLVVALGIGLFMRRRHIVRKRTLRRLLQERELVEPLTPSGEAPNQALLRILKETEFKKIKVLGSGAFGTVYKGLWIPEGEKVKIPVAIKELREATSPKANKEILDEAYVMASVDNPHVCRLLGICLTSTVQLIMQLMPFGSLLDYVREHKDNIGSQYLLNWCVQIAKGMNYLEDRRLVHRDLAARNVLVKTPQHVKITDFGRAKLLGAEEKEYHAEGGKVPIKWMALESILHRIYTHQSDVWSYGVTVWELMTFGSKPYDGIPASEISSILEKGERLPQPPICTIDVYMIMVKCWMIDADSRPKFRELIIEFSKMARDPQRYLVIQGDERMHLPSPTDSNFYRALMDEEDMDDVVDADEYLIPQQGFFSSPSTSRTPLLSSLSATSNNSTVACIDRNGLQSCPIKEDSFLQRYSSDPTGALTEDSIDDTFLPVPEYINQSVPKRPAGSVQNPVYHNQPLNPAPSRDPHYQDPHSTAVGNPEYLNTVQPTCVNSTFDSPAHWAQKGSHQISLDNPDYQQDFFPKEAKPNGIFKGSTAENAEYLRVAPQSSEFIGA
How it was run: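 Each enzyme was allowed to phosphorylate 10–20% of its peptide at 25° C. before EDTA (35 mM) quench. Separated substrate and product peaks were measured by mobility shift, giving apparent IC50 values.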

T1 sequence (P00533 25-1210 T790M/L858R): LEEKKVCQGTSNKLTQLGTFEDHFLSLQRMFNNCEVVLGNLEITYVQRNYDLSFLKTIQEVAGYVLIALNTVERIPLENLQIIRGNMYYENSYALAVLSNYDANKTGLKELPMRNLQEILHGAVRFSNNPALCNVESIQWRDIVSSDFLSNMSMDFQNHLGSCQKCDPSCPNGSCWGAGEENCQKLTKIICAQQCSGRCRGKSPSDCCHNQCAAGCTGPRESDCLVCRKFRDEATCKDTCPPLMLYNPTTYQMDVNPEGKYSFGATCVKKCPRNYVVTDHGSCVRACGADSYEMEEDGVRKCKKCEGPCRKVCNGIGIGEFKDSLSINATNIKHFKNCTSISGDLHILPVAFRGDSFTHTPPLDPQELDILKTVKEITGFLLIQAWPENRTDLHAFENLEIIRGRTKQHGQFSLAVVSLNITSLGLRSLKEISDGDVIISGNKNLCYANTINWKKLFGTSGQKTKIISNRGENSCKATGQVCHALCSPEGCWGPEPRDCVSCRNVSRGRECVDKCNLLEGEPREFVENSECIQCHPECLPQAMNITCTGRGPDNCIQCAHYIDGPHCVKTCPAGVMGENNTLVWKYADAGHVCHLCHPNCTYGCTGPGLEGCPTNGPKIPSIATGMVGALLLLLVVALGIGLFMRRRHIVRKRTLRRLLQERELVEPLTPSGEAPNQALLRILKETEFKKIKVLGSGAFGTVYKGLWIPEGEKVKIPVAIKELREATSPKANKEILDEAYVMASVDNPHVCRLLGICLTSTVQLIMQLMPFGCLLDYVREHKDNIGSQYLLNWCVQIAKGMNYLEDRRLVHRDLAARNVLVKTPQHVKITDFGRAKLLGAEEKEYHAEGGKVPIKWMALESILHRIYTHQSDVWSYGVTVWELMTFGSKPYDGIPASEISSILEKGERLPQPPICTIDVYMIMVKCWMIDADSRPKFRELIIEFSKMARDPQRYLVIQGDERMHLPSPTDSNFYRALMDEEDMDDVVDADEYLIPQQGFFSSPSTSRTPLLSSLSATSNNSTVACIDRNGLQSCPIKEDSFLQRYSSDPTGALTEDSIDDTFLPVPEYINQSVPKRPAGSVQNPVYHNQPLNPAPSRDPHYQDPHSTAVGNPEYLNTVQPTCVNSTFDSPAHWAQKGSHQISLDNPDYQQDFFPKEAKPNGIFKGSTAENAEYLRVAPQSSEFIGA

| Compound | IC50 [1] [nM] | IC50 [2] [nM] |
| --- | --- | --- |
| CC(C)c1cnc(C(=O)N[C@@H](C)CF)c2cnc(Nc3ccnc(N4CC[C@@H](O)[C@@](C)(F)C4)n3)cc12 [Example 72, 6-((2-((3S,4R)-3-fluoro-4-hydroxy-3-methylpiperidin-1-yl)pyrimidin-4-yl)amino)-N-((S)-1-fluoropropan-2-yl)-4-isopropyl-2,7-naphthyridine-1-carboxamide] | > 50 | 15 to 20 |
| CC(C)c1cnc(C(=O)N[C@H]2CN(C)C[C@H]2F)c2cnc(Nc3ccnc(N4CC[C@@H](O)[C@@](C)(F)C4)n3)cc12 (single isomer, unassigned) [Example 87] | 10 to 20 | < 15 |
| CC(C)c1ccc(OC[C@@H](C)n2cnnc2)c2cnc(Nc3ccnc(N4CC[C@](C)(O)[C@H](F)C4)n3)cc12 [Example 37, (3R,4S)-1-(4-((8-((R)-2-(4H-1,2,4-triazol-4-yl)propoxy)-5-isopropylisoquinolin-3-yl)amino)pyrimidin-2-yl)-3-fluoro-4-methylpiperidin-4-ol] | 30 to 50 | 15 to 20 |
| CC(=O)N1CC(COc2ccc(C(C)C)c3cc(Nc4ccnc(N5CC[C@@H](O)[C@@](C)(F)C5)n4)ncc23)C1 [Example 8, 1-(3-(((3-((2-((3S,4R)-3-fluoro-4-hydroxy-3-methylpiperidin-1-yl)pyrimidin-4-yl)amino)-5-isopropylisoquinolin-8-yl)oxy)methyl)azetidin-1-yl)ethan-1-one] | < 10 | < 15 |
| CNC(=O)c1ncc(C(C)C)c2cc(Nc3ccnc(N4C[C@@H](F)[C@@H](O)C(C)(C)C4)n3)ncc12 (single isomer, unassigned) [Example 82, 6-((2-((4S,5R)-5-fluoro-4-hydroxy-3,3-dimethylpiperidin-1l-yl)pyrimidin-4-yl)amino)-4-isopropyl-N-methyl-2,7-naphthyridine-1-carboxamide or 6-((2-((4R,5S)-5-fluoro-4-hydroxy-3,3-dimethylpiperidin-1-yl)pyrimidin-4-yl)amino)-4-isopropyl-N-methyl-2,7-naphthyridine-1-carboxamide] | > 50 | 15 to 20 |
| CC(C)c1cnc(NC[C@H](C)N(C)C)c2cnc(Nc3ccnc(N4CC[C@@H](O)[C@@](C)(F)C4)n3)cc12 (single isomer, unassigned) [Example 4, (3S,4R)-1-(4-((8-(((S)-2-(dimethylamino)propyl)amino)-5-isopropyl-2,7-naphthyridin-3-yl)amino)pyrimidin-2-yl)-3-fluoro-3-methylpiperidin-4-ol or (3S,4R)-1-(4-((8-(((R)-2-(dimethylamino)propyl)amino)-5-isopropyl-2,7-naphthyridin-3-yl)amino)pyrimidin-2-yl)-3-fluoro-3-methylpiperidin-4-ol] | > 50 | 30 to 100 |
| CC(C)c1ccc(OCc2cnn(C)c2)c2cnc(Nc3ccnc(N4CC[C@@H](O)[C@@](C)(F)C4)n3)cc12 [Example 9, (3S,4R)-3-fluoro-1-(4-((5-isopropyl-8-((1-methyl-1H-pyrazol-4-yl)methoxy)isoquinolin-3-yl)amino)pyrimidin-2-yl)-3-methylpiperidin-4-ol] | > 50 | < 15 |
| CO[C@@H]1CCN(c2nccc(Nc3cc4c(C(C)C)cnc(NCCN(C)C)c4cn3)n2)C[C@@H]1F [Example 3, N^1-(2-(dimethylamino)ethyl)-N^6-(2-((3S,4R)-3-fluoro-4-methoxypiperidin-1-yl)pyrimidin-4-yl)-4-isopropyl-2,7-naphthyridine-1,6-diamine] | > 50 | 15 to 20 |
| CC(C)c1cnc(C(=O)N[C@@H]2CN(C)C[C@H]2F)c2cnc(Nc3ccnc(N4CC[C@@H](O)[C@@](C)(F)C4)n3)cc12 (single isomer, unassigned) [Example 89] | > 50 | 15 to 20 |
| CC(=O)N1CC(COc2ccc(C(C)C)c3cc(Nc4ccnc(N5CC[C@](C)(O)[C@H](F)C5)n4)ncc23)C1 [Example 26, 1-(3-(((3-((2-((3R,4S)-3-fluoro-4-hydroxy-4-methylpiperidin-1-yl)pyrimidin-4-yl)amino)-5-isopropylisoquinolin-8-yl)oxy)methyl)azetidin-1-yl)ethan-1-one] | > 50 | 15 to 20 |
| CC(C)c1ccc(OC[C@@H]2CCC(=O)N2C)c2cnc(Nc3ccnc(N4CC[C@](C)(O)[C@H](F)C4)n3)cc12 [Example 33, (S)-5-(((3-((2-((3R,4S)-3-fluoro-4-hydroxy-4-methylpiperidin-1-yl)pyrimidin-4-yl)amino)-5-isopropylisoquinolin-8-yl)oxy)methyl)-1-methylpyrrolidin-2-one] | 30 to 50 | 15 to 20 |
| CO[C@H]1CCN(c2nccc(Nc3cc4c(C(C)C)ccc(OCCCNC(C)=O)c4cn3)n2)C[C@@H]1O (single isomer, unassigned) [Example 58, N-(3-((3-((2-((3S,4S)-3-hydroxy-4-methoxypiperidin-1-yl)pyrimidin-4-yl)amino)-5-isopropylisoquinolin-8-yl)oxy)propyl)acetamide or N-(3-((3-((2-((3R,4R)-3-hydroxy-4-methoxypiperidin-1-yl)pyrimidin-4-yl)amino)-5-isopropylisoquinolin-8-yl)oxy)propyl)acetamide] | 20 to 30 | < 15 |
| CC(C)c1ccc(OC[C@H]2CN(C)C(=O)O2)c2cnc(Nc3ccnc(N4CCC(C)(O)CC4)n3)cc12 [Example 16, (R)-5-(((3-((2-(4-hydroxy-4-methylpiperidin-1-yl)pyrimidin-4-yl)amino)-5-isopropylisoquinolin-8-yl)oxy)methyl)-3-methyloxazolidin-2-one] | > 50 | 20 to 30 |
| Cc1nccn1CCOc1ccc(C(C)C)c2cc(Nc3ccnc(N4CC[C@@](C)(O)[C@@H](F)C4)n3)ncc12 [Example 13, (3S,4R)-3-fluoro-1-(4-((5-isopropyl-8-(2-(2-methyl-1H-imidazol-1-yl)ethoxy)isoquinolin-3-yl)amino)pyrimidin-2-yl)-4-methylpiperidin-4-ol] | 30 to 50 | < 15 |
| CC(C)c1ccc(OC[C@@H]2CC(=O)N(C)C2)c2cnc(Nc3ccnc(N4CC[C@@H](O)[C@@](C)(F)C4)n3)cc12 (single isomer, unassigned) [Example 20] | 10 to 20 | < 15 |
| CC(C)c1cnc(C(=O)NCC(C)(C)O)c2cnc(Nc3ccnc(N4CC[C@@H](O)[C@@](C)(F)C4)n3)cc12 [Example 70, 6-((2-((3S,4R)-3-fluoro-4-hydroxy-3-methylpiperidin-1-yl)pyrimidin-4-yl)amino)-N-(2-hydroxy-2-methylpropyl)-4-isopropyl-2,7-naphthyridine-1-carboxamide] | > 50 | 30 to 100 |
| CC(C)c1cnc(C(=O)N[C@H]2C[C@@](C)(O)C2)c2cnc(Nc3ccnc(N4CC[C@@H](O)[C@@](C)(F)C4)n3)cc12 [Example 83, 6-((2-((3S,4R)-3-fluoro-4-hydroxy-3-methylpiperidin-1-yl)pyrimidin-4-yl)amino)-N-((1s,3s)-3-hydroxy-3-methylcyclobutyl)-4-isopropyl-2,7-naphthyridine-1-carboxamide] | 30 to 50 | < 15 |
| CC(C)c1ccc(OCCn2cnnc2)c2cnc(Nc3ccnc(N4CC[C@](C)(O)[C@H](F)C4)n3)cc12 [Example 27, (3R,4S)-1-(4-((8-(2-(4H-1,2,4-triazol-4-yl)ethoxy)-5-isopropylisoquinolin-3-yl)amino)pyrimidin-2-yl)-3-fluoro-4-methylpiperidin-4-ol] | > 50 | < 15 |
